Data reported in patent US12660819B2, “Herbicidal derivatives” (SYNGENTA CROP PROTECTION AG, priority 2020, dated 2026).

Columns and labels:
Assay type in all cases: in vivo
Setaria faberi (SETFA) [1] = assay: Pre-emergence Test (glasshouse, percentage damage to the plant); details: 1000 g/ha unless otherwise stated; for percentage damage to the plant, SETFA: five-point scale
Zea mays (ZEAMX) [2] = assay: Post-emergence Test (glasshouse, percentage damage to the plant); details: 1000 g/ha unless otherwise stated, evaluated after 13 days; for Post-emergence Test ZEAMX, percentage damage to the plant (five-point scale): post-emergence spray
Experimental: (§1) Seeds of a variety of test species are sown in standard soil in pots (Amaranthus retoflexus (AMARE), Solanum nigrum (SOLNI), Setaria faberi (SETFA), Lolium perenne (LOLPE), Echinochloa crus-galli (ECHCG), Ipomoea hederacea (IPOHE), Abutilon theophrasti (ABUTH), Zea mays (ZEAMX), Amaranthus palmeri (AMAPA). After 8 days cultivation under controlled conditions in a glasshouse (at 24° C./16° C., day/night; 14 hours light; 65% humidity), the plants are sprayed with an aqueous spray solution derived from the formulation of the technical active ingredient in acetone/water (50:50) solution containing 0.5% Tween 20 (polyoxyethelyene sorbitan monolaurate, CAS RN 9005-64-5). Compounds are applied at 1000 g/ha unless otherwise stated. The test plants are then grown in a glasshouse under controlled conditions in a glasshouse (at 24° C./16° C., day/night; 14 hours light; 65% humidity) and watered twice daily. After 13 days the test is evaluated for the percentage damage caused to the plant. The biological activities are shown in the following table on a five-point scale (5=81-100%; 4=61-80%; 3=41-60%; 2=21-40%; 1=0-20%).

[3] = system: Amaranthus retoflexus (AMARE); assay: as above; details: 1000 g/ha unless otherwise stated, evaluated after 13 days; for Post-emergence Test AMARE, percentage damage to the plant (five-point scale): post-emergence spray
Experimental: as §1

Setaria faberi (SETFA) [4] = assay: as above; details: 1000 g/ha unless otherwise stated, evaluated after 13 days; for Post-emergence Test SETFA, percentage damage to the plant (five-point scale): post-emergence spray
Experimental: as §1

[5] = system: Echinochloa crus-galli (ECHCG); assay: as above; details: post-emergence spray, 1000 g/ha unless otherwise stated, evaluated after 13 days
Experimental: as §1

[6] = system: Ipomoea hederacea (IPOHE); assay: as above; details: 1000 g/ha unless otherwise stated, evaluated after 13 days; for Post-emergence Test IPOHE, percentage damage to the plant (five-point scale): post-emergence spray
Experimental: as §1

[7] = system: Amaranthus retoflexus (AMARE); assay: Pre-emergence Test (glasshouse, percentage damage to the plant); details: 1000 g/ha unless otherwise stated; for percentage damage to the plant, AMARE: five-point scale
[8] = system: Abutilon theophrasti (ABUTH); assay: as above; details: 1000 g/ha unless otherwise stated; for percentage damage to the plant, ABUTH: five-point scale
[9] = system: Echinochloa crus-galli (ECHCG); assay: as above; details: 1000 g/ha unless otherwise stated; for percentage damage to the plant, ECHCG: five-point scale
Zea mays (ZEAMX) [10] = assay: as above; details: 1000 g/ha unless otherwise stated; for percentage damage to the plant, ZEAMX: five-point scale
[11] = system: Ipomoea hederacea (IPOHE); assay: as above; details: 1000 g/ha unless otherwise stated; for percentage damage to the plant, IPOHE: five-point scale

Row | SMILES | percentage damage to the plant, SETFA (Setaria faberi (SETFA) [1]) | Post-emergence Test ZEAMX, percentage damage to the plant (five-point scale) (Zea mays (ZEAMX) [2]) | Post-emergence Test AMARE, percentage damage to the plant (five-point scale) [3] | Post-emergence Test SETFA, percentage damage to the plant (five-point scale) (Setaria faberi (SETFA) [4]) | Post-emergence Test ECHCG, percentage damage to the plant (five-point scale) [5] | Post-emergence Test IPOHE, percentage damage to the plant (five-point scale) [6] | percentage damage to the plant, AMARE [7] | percentage damage to the plant, ABUTH [8] | percentage damage to the plant, ECHCG [9] | percentage damage to the plant, ZEAMX (Zea mays (ZEAMX) [10]) | percentage damage to the plant, IPOHE [11] | further results
1 | CCn1c(C)c(-c2cc(C)c(F)c(C)c2)c(=O)c(C(=O)O)c1-c1ccc(Cl)cc1 [Compound 173, 2-(4-chlorophenyl)-1-ethyl-5-(4-fluoro-3,5-dimethyl-phenyl)-6-methyl-4-oxo-pyridine-3-carboxylic acid] | 0 | 2 (2=21-40%) | 3 (3=41-60%) | 2 (2=21-40%) | 1 (1=0-20%) | 3 (3=41-60%) | 0 | 0 | 0 | 0 | 0 | 
2 | CCn1c(C)c(-c2ccc(F)c(C#N)c2)c(=O)c(C(=O)O)c1-c1ccc(Cl)cc1 [Compound 174, 2-(4-chlorophenyl)-5-(3-cyano-4-fluoro-phenyl)-1-ethyl-6-methyl-4-oxo-pyridine-3-carboxylic acid] | 2 (2=21-40%) | 1 (1=0-20%) | 2 (2=21-40%) | 3 (3=41-60%) | 2 (2=21-40%) | 4 (4=61-80%) | 1 (1=0-20%) | 1 (1=0-20%) | 3 (3=41-60%) | 1 (1=0-20%) | 1 (1=0-20%) | 
3 | CCn1c(C)c(-c2cc(F)ccc2Cl)c(=O)c(C(=O)O)c1-c1ccc(Cl)cc1 [Compound 175, 5-(2-chloro-5-fluoro-phenyl)-2-(4-chlorophenyl)-1-ethyl-6-methyl-4-oxo-pyridine-3-carboxylic acid] | 2 (2=21-40%) | 1 (1=0-20%) | 1 (1=0-20%) | 3 (3=41-60%) | 2 (2=21-40%) | 3 (3=41-60%) | 0 | 0 | 1 (1=0-20%) | 1 (1=0-20%) | 3 (3=41-60%) | 
4 | CCOc1cc(-c2c(C)n(CC)c(-c3ccc(Cl)cc3)c(C(=O)O)c2=O)ccc1C(F)(F)F [Compound 176, 2-(4-chlorophenyl)-5-[3-ethoxy-4-(trifluoromethyl)phenyl]-1-ethyl-6-methyl-4-oxo-pyridine-3-carboxylic acid] | 0 | 1 (1=0-20%) | 2 (2=21-40%) | 1 (1=0-20%) | 1 (1=0-20%) | 1 (1=0-20%) | 0 | 0 |  | 0 | 0 | 
5 | CCn1c(C)c(-c2ccc(Cl)c(Cl)c2)c(=O)c(C(=O)O)c1-c1ccc(Cl)cc1 [Compound 195, 2-(4-chlorophenyl)-5-(3,4-dichlorophenyl)-1-ethyl-6-methyl-4-oxo-pyridine-3-carboxylic acid] | 1 (1=0-20%) | 2 (2=21-40%) | 4 (4=61-80%) | 2 (2=21-40%) |  | 3 (3=41-60%) | 2 (2=21-40%) | 0 | 2 (2=21-40%) | 0 | 0 | 
6 | CCn1c(C)c(-c2ccc(Cl)c(C#N)c2)c(=O)c(C(=O)O)c1-c1ccc(Cl)cc1 [Compound 196, 5-(4-chloro-3-cyano-phenyl)-2-(4-chlorophenyl)-1-ethyl-6-methyl-4-oxo-pyridine-3-carboxylic acid] | 1 (1=0-20%) | 2 (2=21-40%) | 3 (3=41-60%) | 3 (3=41-60%) |  | 3 (3=41-60%) | 1 (1=0-20%) | 0 | 2 (2=21-40%) | 0 | 1 (1=0-20%) | 
7 | CCn1c(C)c(-c2cc(C)c(Cl)c(C)c2)c(=O)c(C(=O)O)c1-c1ccc(Cl)cc1 [Compound 197, 5-(4-chloro-3,5-dimethyl-phenyl)-2-(4-chlorophenyl)-1-ethyl-6-methyl-4-oxo-pyridine-3-carboxylic acid] | 0 | 1 (1=0-20%) | 1 (1=0-20%) | 1 (1=0-20%) |  | 2 (2=21-40%) | 0 | 0 | 0 | 0 | 0 | 
8 | CCn1c(C)c(-c2cc(F)c(F)c(F)c2)c(=O)c(C(=O)O)c1-c1ccc(Cl)cc1 [Compound 200, 2-(4-chlorophenyl)-1-ethyl-6-methyl-4-oxo-5-(3,4,5-trifluorophenyl)pyridine-3-carboxylic acid] |  |  |  |  |  |  |  |  |  |  |  | percentage damage to the plant, SETFA (five-point scale) (Setaria faberi (SETFA) [1]; Setaria faberi): 2 (2=21-40%); ZEAMX, percentage damage caused to the plant (five-point scale) (Zea mays (ZEAMX) [2]; post-emergence): 2 (2=21-40%); AMARE, percentage damage caused to the plant (five-point scale) ([3]; post-emergence): 1 (1=0-20%); SETFA, percentage damage caused to the plant (five-point scale) (Setaria faberi (SETFA) [4]; post-emergence): 3 (3=41-60%); IPOHE, percentage damage caused to the plant (five-point scale) ([6]; post-emergence): 3 (3=41-60%); percentage damage to the plant, AMARE (five-point scale) ([7]; Amaranthus retoflexus): 0; percentage damage to the plant, ABUTH (five-point scale) ([8]; Abutilon theophrasti): 3 (3=41-60%); percentage damage to the plant, ECHCG (five-point scale) ([9]; Echinochloa crus-galli): 3 (3=41-60%); percentage damage to the plant, ZEAMX (five-point scale) (Zea mays (ZEAMX) [10]; Zea mays): 0; percentage damage to the plant, IPOHE (five-point scale) ([11]; Ipomoea hederacea): 2 (2=21-40%)
